The values below come from patent US4177350A, “Imidazole ethyl oxyalkoxy derivatives and thio analogues thereof” (Siegfried Aktiengesellschaft, priority 1977, dated 1979).

In one data set the test system is Staphylococcus aureus haemolyticus. The data set is described as follows: minimum inhibitory concentration, gradient plate method, Staphylococcus aureus haemolyticus.
Conditions: not given
It counts as cell-based. On the set-up: key to partial resistancy, Bacteria, St: partial resistancy observed. From the text: (§1) Test evaluation was made three days after inoculation.
In the case of `COc1ccccc1OCOC(Cn1ccnc1)c1ccc(Cl)cc1Cl` (stereo not drawn) [Example 24, 1-β-(2-methoxyphenoxymethyloxy-2,4-dichlorophenethyl)-imidazole nitrate], the “partial resistancy, Bacteria, St” value is listed as “r”.

Staying with this data set, now noted: 72 h, gradient 0-100 μg/ml, 10% aqueous dimethyl formamide, evaluated three days after inoculation, read-out: Minimum Inhibitory Concentration, Bacteria, St.
On to `Clc1ccc(C(Cn2ccnc2)OCOc2ccccc2)c(Cl)c1` (stereo not drawn) [Example 2, 1-β-(phenoxymethoxy-2,4-dichlorophenethyl)-imidazole nitrate], for which the MIC turned out to be 10 µg/mL.

Turning to `Clc1ccc(C(Cn2ccnc2)OCOc2ccccc2Cl)c(Cl)c1` (stereo not drawn) [Example 3, 1-β-(2-chlorophenoxymethoxy-2,4-dichlorophenethyl)-imidazole nitrate], the MIC was < 10 µg/mL.

With `Clc1ccc(OCOC(Cn2ccnc2)c2ccc(Cl)cc2Cl)cc1` (stereo not drawn) [Example 4, 1-β-(4-chlorophenoxymethoxy-2,4-dichlorophenethyl)-imidazole nitrate], the MIC is < 10 µg/mL.

Consider `Clc1ccc(OCOC(Cn2ccnc2)c2ccc(Cl)cc2Cl)c(Cl)c1` (stereo not drawn) [Example 5, 1-β-(2,4-dichlorophenoxymethoxy-2,4-dichlorophenethyl)-imidazole nitrate], for which the MIC is < 10 µg/mL.

For `Cc1ccc(OCOC(Cn2ccnc2)c2ccc(Cl)cc2Cl)cc1` (stereo not drawn) [Example 6, 1-β-(4-methylphenoxymethoxy-2,4-dichlorophenethyl)-imidazole nitrate], the MIC was < 10 µg/mL.

Turning to `COc1ccc(OCOC(Cn2ccnc2)c2ccc(Cl)cc2Cl)cc1` (stereo not drawn) [Example 7, 1-β-(4-methoxyphenoxymethoxy-2,4-dichlorophenethyl)-imidazole nitrate], the MIC stood at 10 µg/mL.

For `CSc1ccc(OCOC(Cn2ccnc2)c2ccc(Cl)cc2Cl)cc1` (stereo not drawn) [Example 8, 1-β-(4-methylthiophenoxymethoxy-2,4-dichlorophenethyl)-imidazole nitrate], the MIC was determined as 10 µg/mL.

With `CSCOC(Cn1ccnc1)c1ccc(Cl)cc1Cl` (stereo not drawn) [Example 10, 1-β-(methylthiomethoxy-2,4-dichlorophenethyl)-imidazole nitrate], the MIC worked out at 20 µg/mL.

Turning to `Clc1ccc(C(Cn2ccnc2)OCSc2ccccc2)c(Cl)c1` (stereo not drawn) [Example 11, 1-β-(phenylthiomethoxy-2,4-dichlorophenethyl)-imidazole nitrate], the MIC is < 10 µg/mL.

Regarding `Clc1ccc(C(Cn2ccnc2)OCSc2ccc(Br)cc2)c(Cl)c1` (stereo not drawn) [Example 12, 1-β-(4-bromophenylthiomethoxy-2,4-dichlorophenethyl)-imidazole nitrate], the MIC is < 10 µg/mL.

In the case of `Clc1ccc(SCOC(Cn2ccnc2)c2ccc(Cl)cc2Cl)cc1` (stereo not drawn) [Example 13, 1-β-(4-chlorophenylthiomethoxy-2,4-dichlorophenethyl)-imidazole nitrate], the MIC was found to be 10 µg/mL.

On to `Cc1ccc(SCOC(Cn2ccnc2)c2ccc(Cl)cc2Cl)cc1` (stereo not drawn) [Example 14, 1-β-(4-methylphenylthiomethoxy-2,4-dichlorophenethyl)-imidazole nitrate], for which the MIC was < 10 µg/mL.

The test system of another data set is Streptococcus faecalis. The data set is described as follows: minimum inhibitory concentration, gradient plate method, Streptococcus faecalis. The data set is classed as cell-based. The note with it: Enterococcus faecalis, 72 h, gradient 0-100 μg/ml, 10% aqueous dimethyl formamide, evaluated three days after inoculation, read-out: Minimum Inhibitory Concentration, Bacteria, Str.
Source text: as §1
`Clc1ccc(C(Cn2ccnc2)OCOc2ccccc2)c(Cl)c1` (stereo not drawn) [Example 2, 1-β-(phenoxymethoxy-2,4-dichlorophenethyl)-imidazole nitrate]: the MIC worked out at 25 µg/mL.

With `Clc1ccc(C(Cn2ccnc2)OCOc2ccccc2Cl)c(Cl)c1` (stereo not drawn) [Example 3, 1-β-(2-chlorophenoxymethoxy-2,4-dichlorophenethyl)-imidazole nitrate], the MIC stood at 15 µg/mL.

Regarding `Clc1ccc(OCOC(Cn2ccnc2)c2ccc(Cl)cc2Cl)cc1` (stereo not drawn) [Example 4, 1-β-(4-chlorophenoxymethoxy-2,4-dichlorophenethyl)-imidazole nitrate], the MIC is < 10 µg/mL.

Consider `Clc1ccc(OCOC(Cn2ccnc2)c2ccc(Cl)cc2Cl)c(Cl)c1` (stereo not drawn) [Example 5, 1-β-(2,4-dichlorophenoxymethoxy-2,4-dichlorophenethyl)-imidazole nitrate], for which the MIC was < 10 µg/mL.

As for `Cc1ccc(OCOC(Cn2ccnc2)c2ccc(Cl)cc2Cl)cc1` (stereo not drawn) [Example 6, 1-β-(4-methylphenoxymethoxy-2,4-dichlorophenethyl)-imidazole nitrate], the MIC worked out at 15 µg/mL.

In the case of `COc1ccc(OCOC(Cn2ccnc2)c2ccc(Cl)cc2Cl)cc1` (stereo not drawn) [Example 7, 1-β-(4-methoxyphenoxymethoxy-2,4-dichlorophenethyl)-imidazole nitrate], the MIC amounted to 30 µg/mL.

As to `CSCOC(Cn1ccnc1)c1ccc(Cl)cc1Cl` (stereo not drawn) [Example 10, 1-β-(methylthiomethoxy-2,4-dichlorophenethyl)-imidazole nitrate], the MIC was 30 µg/mL.

`Clc1ccc(C(Cn2ccnc2)OCSc2ccccc2)c(Cl)c1` (stereo not drawn) [Example 11, 1-β-(phenylthiomethoxy-2,4-dichlorophenethyl)-imidazole nitrate]: the MIC was 20 µg/mL.

Turning to `Clc1ccc(C(Cn2ccnc2)OCSc2ccc(Br)cc2)c(Cl)c1` (stereo not drawn) [Example 12, 1-β-(4-bromophenylthiomethoxy-2,4-dichlorophenethyl)-imidazole nitrate], the MIC worked out at 10 µg/mL.

For the molecule `Clc1ccc(SCOC(Cn2ccnc2)c2ccc(Cl)cc2Cl)cc1` (stereo not drawn) [Example 13, 1-β-(4-chlorophenylthiomethoxy-2,4-dichlorophenethyl)-imidazole nitrate], the MIC is 10 µg/mL.

Take `Cc1ccc(SCOC(Cn2ccnc2)c2ccc(Cl)cc2Cl)cc1` (stereo not drawn) [Example 14, 1-β-(4-methylphenylthiomethoxy-2,4-dichlorophenethyl)-imidazole nitrate]: the MIC was < 10 µg/mL.

Another data set has as its system Trichophyton mentagrophytes. The data set is described as follows: minimum inhibitory concentration, gradient plate method, Trichophyton mentagrophytes. It counts as cell-based. The note with it: 72 h, gradient 0-100 μg/ml, 10% aqueous dimethyl formamide, evaluated three days after inoculation, read-out: Minimum Inhibitory Concentration, Fungi, Tri.
Source text: as §1
For `Clc1ccc(C(Cn2ccnc2)OCOc2ccccc2)c(Cl)c1` (stereo not drawn) [Example 2, 1-β-(phenoxymethoxy-2,4-dichlorophenethyl)-imidazole nitrate], the MIC was < 10 µg/mL.

On to `Clc1ccc(C(Cn2ccnc2)OCOc2ccccc2Cl)c(Cl)c1` (stereo not drawn) [Example 3, 1-β-(2-chlorophenoxymethoxy-2,4-dichlorophenethyl)-imidazole nitrate], for which the MIC is < 10 µg/mL.

Consider `Clc1ccc(OCOC(Cn2ccnc2)c2ccc(Cl)cc2Cl)cc1` (stereo not drawn) [Example 4, 1-β-(4-chlorophenoxymethoxy-2,4-dichlorophenethyl)-imidazole nitrate], for which the MIC was < 10 µg/mL.

Turning to `Clc1ccc(OCOC(Cn2ccnc2)c2ccc(Cl)cc2Cl)c(Cl)c1` (stereo not drawn) [Example 5, 1-β-(2,4-dichlorophenoxymethoxy-2,4-dichlorophenethyl)-imidazole nitrate], the MIC is < 10 µg/mL.

`Cc1ccc(OCOC(Cn2ccnc2)c2ccc(Cl)cc2Cl)cc1` (stereo not drawn) [Example 6, 1-β-(4-methylphenoxymethoxy-2,4-dichlorophenethyl)-imidazole nitrate]: the MIC was < 10 µg/mL.

As to `COc1ccc(OCOC(Cn2ccnc2)c2ccc(Cl)cc2Cl)cc1` (stereo not drawn) [Example 7, 1-β-(4-methoxyphenoxymethoxy-2,4-dichlorophenethyl)-imidazole nitrate], the MIC was < 10 µg/mL.

Regarding `CSc1ccc(OCOC(Cn2ccnc2)c2ccc(Cl)cc2Cl)cc1` (stereo not drawn) [Example 8, 1-β-(4-methylthiophenoxymethoxy-2,4-dichlorophenethyl)-imidazole nitrate], the MIC is < 10 µg/mL.

For the molecule `CSCOC(Cn1ccnc1)c1ccc(Cl)cc1Cl` (stereo not drawn) [Example 10, 1-β-(methylthiomethoxy-2,4-dichlorophenethyl)-imidazole nitrate], the MIC is < 10 µg/mL.

Consider `Clc1ccc(C(Cn2ccnc2)OCSc2ccccc2)c(Cl)c1` (stereo not drawn) [Example 11, 1-β-(phenylthiomethoxy-2,4-dichlorophenethyl)-imidazole nitrate], for which the MIC was < 10 µg/mL.

With `Clc1ccc(C(Cn2ccnc2)OCSc2ccc(Br)cc2)c(Cl)c1` (stereo not drawn) [Example 12, 1-β-(4-bromophenylthiomethoxy-2,4-dichlorophenethyl)-imidazole nitrate], the MIC was < 10 µg/mL.

Regarding `Clc1ccc(SCOC(Cn2ccnc2)c2ccc(Cl)cc2Cl)cc1` (stereo not drawn) [Example 13, 1-β-(4-chlorophenylthiomethoxy-2,4-dichlorophenethyl)-imidazole nitrate], the MIC was < 10 µg/mL.

With `Cc1ccc(SCOC(Cn2ccnc2)c2ccc(Cl)cc2Cl)cc1` (stereo not drawn) [Example 14, 1-β-(4-methylphenylthiomethoxy-2,4-dichlorophenethyl)-imidazole nitrate], the MIC was < 10 µg/mL.

Consider `COc1ccccc1OCOC(Cn1ccnc1)c1ccc(Cl)cc1Cl` (stereo not drawn) [Example 24, 1-β-(2-methoxyphenoxymethyloxy-2,4-dichlorophenethyl)-imidazole nitrate], for which the MIC is < 10 µg/mL.

Another data set has as its system Aspergillus niger. The data set is described as follows: minimum inhibitory concentration, gradient plate method, Aspergillus niger. The data set is classed as cell-based. The note with it: 72 h, gradient 0-100 μg/ml, 10% aqueous dimethyl formamide, evaluated three days after inoculation, read-out: Minimum Inhibitory Concentration, Fungi, Asp.
Source text: as §1
Regarding `Clc1ccc(C(Cn2ccnc2)OCOc2ccccc2)c(Cl)c1` (stereo not drawn) [Example 2, 1-β-(phenoxymethoxy-2,4-dichlorophenethyl)-imidazole nitrate], the MIC is < 10 µg/mL.

As to `Clc1ccc(C(Cn2ccnc2)OCOc2ccccc2Cl)c(Cl)c1` (stereo not drawn) [Example 3, 1-β-(2-chlorophenoxymethoxy-2,4-dichlorophenethyl)-imidazole nitrate], the MIC is < 10 µg/mL.

Take `Clc1ccc(OCOC(Cn2ccnc2)c2ccc(Cl)cc2Cl)cc1` (stereo not drawn) [Example 4, 1-β-(4-chlorophenoxymethoxy-2,4-dichlorophenethyl)-imidazole nitrate]: the MIC is < 10 µg/mL.

On to `Clc1ccc(OCOC(Cn2ccnc2)c2ccc(Cl)cc2Cl)c(Cl)c1` (stereo not drawn) [Example 5, 1-β-(2,4-dichlorophenoxymethoxy-2,4-dichlorophenethyl)-imidazole nitrate], for which the MIC was < 10 µg/mL.

For the molecule `Cc1ccc(OCOC(Cn2ccnc2)c2ccc(Cl)cc2Cl)cc1` (stereo not drawn) [Example 6, 1-β-(4-methylphenoxymethoxy-2,4-dichlorophenethyl)-imidazole nitrate], the MIC is < 10 µg/mL.

For `COc1ccc(OCOC(Cn2ccnc2)c2ccc(Cl)cc2Cl)cc1` (stereo not drawn) [Example 7, 1-β-(4-methoxyphenoxymethoxy-2,4-dichlorophenethyl)-imidazole nitrate], the MIC was < 10 µg/mL.

As for `CSc1ccc(OCOC(Cn2ccnc2)c2ccc(Cl)cc2Cl)cc1` (stereo not drawn) [Example 8, 1-β-(4-methylthiophenoxymethoxy-2,4-dichlorophenethyl)-imidazole nitrate], the MIC was < 10 µg/mL.

Consider `CSCOC(Cn1ccnc1)c1ccc(Cl)cc1Cl` (stereo not drawn) [Example 10, 1-β-(methylthiomethoxy-2,4-dichlorophenethyl)-imidazole nitrate], for which the MIC was < 10 µg/mL.

Consider `Clc1ccc(C(Cn2ccnc2)OCSc2ccccc2)c(Cl)c1` (stereo not drawn) [Example 11, 1-β-(phenylthiomethoxy-2,4-dichlorophenethyl)-imidazole nitrate], for which the MIC was < 10 µg/mL.

Turning to `Clc1ccc(C(Cn2ccnc2)OCSc2ccc(Br)cc2)c(Cl)c1` (stereo not drawn) [Example 12, 1-β-(4-bromophenylthiomethoxy-2,4-dichlorophenethyl)-imidazole nitrate], the MIC was < 10 µg/mL.

As to `Clc1ccc(SCOC(Cn2ccnc2)c2ccc(Cl)cc2Cl)cc1` (stereo not drawn) [Example 13, 1-β-(4-chlorophenylthiomethoxy-2,4-dichlorophenethyl)-imidazole nitrate], the MIC is < 10 µg/mL.

`Cc1ccc(SCOC(Cn2ccnc2)c2ccc(Cl)cc2Cl)cc1` (stereo not drawn) [Example 14, 1-β-(4-methylphenylthiomethoxy-2,4-dichlorophenethyl)-imidazole nitrate]: the MIC is < 10 µg/mL.

As for `COc1ccccc1OCOC(Cn1ccnc1)c1ccc(Cl)cc1Cl` (stereo not drawn) [Example 24, 1-β-(2-methoxyphenoxymethyloxy-2,4-dichlorophenethyl)-imidazole nitrate], the MIC was < 10 µg/mL.

System in another data set: not listed separately
The data set is described as follows: in vivo. The note with it: mouse, po.
Source text: The results of these tests are summarized in the following Table I together with the oral toxicity values (LD50 per os; mice, values in mg per kg of body weight) determined in the conventional manner.
Broadly, the LD50 is the dose expected to kill half of the subjects tested. In the case of `Clc1ccc(C(Cn2ccnc2)OCOc2ccccc2)c(Cl)c1` (stereo not drawn) [Example 2, 1-β-(phenoxymethoxy-2,4-dichlorophenethyl)-imidazole nitrate], the LD50 was > 3000 mg/kg.

On to `Clc1ccc(C(Cn2ccnc2)OCOc2ccccc2Cl)c(Cl)c1` (stereo not drawn) [Example 3, 1-β-(2-chlorophenoxymethoxy-2,4-dichlorophenethyl)-imidazole nitrate], for which the LD50 is > 3000 mg/kg.

With `Clc1ccc(OCOC(Cn2ccnc2)c2ccc(Cl)cc2Cl)cc1` (stereo not drawn) [Example 4, 1-β-(4-chlorophenoxymethoxy-2,4-dichlorophenethyl)-imidazole nitrate], the LD50 is ~2750 mg/kg.

For `Clc1ccc(OCOC(Cn2ccnc2)c2ccc(Cl)cc2Cl)c(Cl)c1` (stereo not drawn) [Example 5, 1-β-(2,4-dichlorophenoxymethoxy-2,4-dichlorophenethyl)-imidazole nitrate], the LD50 is > 3000 mg/kg.

`Cc1ccc(OCOC(Cn2ccnc2)c2ccc(Cl)cc2Cl)cc1` (stereo not drawn) [Example 6, 1-β-(4-methylphenoxymethoxy-2,4-dichlorophenethyl)-imidazole nitrate]: the LD50 was > 3000 mg/kg.

With `COc1ccc(OCOC(Cn2ccnc2)c2ccc(Cl)cc2Cl)cc1` (stereo not drawn) [Example 7, 1-β-(4-methoxyphenoxymethoxy-2,4-dichlorophenethyl)-imidazole nitrate], the LD50 is 2600 mg/kg.

Take `CSc1ccc(OCOC(Cn2ccnc2)c2ccc(Cl)cc2Cl)cc1` (stereo not drawn) [Example 8, 1-β-(4-methylthiophenoxymethoxy-2,4-dichlorophenethyl)-imidazole nitrate]: the LD50 is ~2100 mg/kg.

With `CSCOC(Cn1ccnc1)c1ccc(Cl)cc1Cl` (stereo not drawn) [Example 10, 1-β-(methylthiomethoxy-2,4-dichlorophenethyl)-imidazole nitrate], the LD50 is ~950 mg/kg.

On to `Clc1ccc(C(Cn2ccnc2)OCSc2ccccc2)c(Cl)c1` (stereo not drawn) [Example 11, 1-β-(phenylthiomethoxy-2,4-dichlorophenethyl)-imidazole nitrate], for which the LD50 was > 3000 mg/kg.

`Clc1ccc(C(Cn2ccnc2)OCSc2ccc(Br)cc2)c(Cl)c1` (stereo not drawn) [Example 12, 1-β-(4-bromophenylthiomethoxy-2,4-dichlorophenethyl)-imidazole nitrate] had an LD50 of 12500 mg/kg.

`Clc1ccc(SCOC(Cn2ccnc2)c2ccc(Cl)cc2Cl)cc1` (stereo not drawn) [Example 13, 1-β-(4-chlorophenylthiomethoxy-2,4-dichlorophenethyl)-imidazole nitrate] came in with an LD50 of 3850 mg/kg.

With `Cc1ccc(SCOC(Cn2ccnc2)c2ccc(Cl)cc2Cl)cc1` (stereo not drawn) [Example 14, 1-β-(4-methylphenylthiomethoxy-2,4-dichlorophenethyl)-imidazole nitrate], the LD50 is > 3000 mg/kg.

For `COc1ccccc1OCOC(Cn1ccnc1)c1ccc(Cl)cc1Cl` (stereo not drawn) [Example 24, 1-β-(2-methoxyphenoxymethyloxy-2,4-dichlorophenethyl)-imidazole nitrate], the LD50 is ~1350 mg/kg.
